Assay results: patent publication US7045532B2 (Millennium Pharmaceuticals, Inc., priority 1999, dated 2006)
Like-named read-outs stand apart in the source and are kept apart here.

Legend:
ACE-2 [1] = target: ACE-2 (Rattus norvegicus, UniProt Q5EGZ1); assay: ACE-2 Competitive Substrate Assay, rat ACE-2; assay type: biochemical; details: Ki class; compounds tested in 5% DMSO, 12 compound concentrations
[2] = Pharmacokinetic profile in BBZDR rats (plasma samples); assay type: in vivo, rat (BBZDR); details: 100 and 300 mg/kg/day oral gavage, 0-24 hours after dosing
Description: To determine the pharmacokinetic profile of Compound HE, plasma samples were taken at 0, 0.5, 1, 2, 4, 8, 12, and 24 hours after dosing in both Compound HE dose groups.

ACE-2 [3] = target: T1, ACE-2 (Homo sapiens, UniProt Q9BYF1); assay: ACE-2 Competitive Substrate Assay (ACS Assay); assay type: biochemical
T1 construct: a stop codon inserted after the serine immediately preceding the transmembrane domain; made in house; host or cells: CHO K1 cells (transient transfection, purified from conditioned medium)
T1 sequence (Q9BYF1 18-740 limits assumed): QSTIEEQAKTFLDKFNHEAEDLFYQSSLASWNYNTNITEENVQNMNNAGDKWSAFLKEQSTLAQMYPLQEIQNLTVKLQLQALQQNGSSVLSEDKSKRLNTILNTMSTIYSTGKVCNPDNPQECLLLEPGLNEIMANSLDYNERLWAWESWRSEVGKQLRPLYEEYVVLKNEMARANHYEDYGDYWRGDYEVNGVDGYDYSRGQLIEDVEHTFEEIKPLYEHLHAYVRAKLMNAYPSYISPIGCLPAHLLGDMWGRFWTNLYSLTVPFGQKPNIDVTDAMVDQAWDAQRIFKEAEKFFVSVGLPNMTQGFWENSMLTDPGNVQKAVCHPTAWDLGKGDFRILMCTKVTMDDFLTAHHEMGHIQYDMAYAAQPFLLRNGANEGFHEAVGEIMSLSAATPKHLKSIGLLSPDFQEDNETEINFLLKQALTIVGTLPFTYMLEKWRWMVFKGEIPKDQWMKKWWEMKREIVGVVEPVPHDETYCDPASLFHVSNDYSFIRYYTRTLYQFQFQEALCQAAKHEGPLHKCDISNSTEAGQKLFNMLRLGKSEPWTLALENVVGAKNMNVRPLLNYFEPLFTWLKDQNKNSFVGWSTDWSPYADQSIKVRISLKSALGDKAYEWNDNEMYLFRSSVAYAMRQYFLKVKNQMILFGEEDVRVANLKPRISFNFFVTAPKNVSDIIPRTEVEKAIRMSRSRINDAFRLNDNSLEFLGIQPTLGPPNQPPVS

ACE (Sigma, A2580) = target: T2, ACE (Sigma, A2580) (Sus scrofa, UniProt F1RRW5); assay: ACE enzymatic activity assay; assay type: biochemical, porcine; details: Ki class; compounds tested in 5% DMSO, 12 compound concentrations
T2 construct: ACE from porcine kidney; purchased Sigma A2580; host or cells: porcine kidney
T2 sequence (F1RRW5 34-1309): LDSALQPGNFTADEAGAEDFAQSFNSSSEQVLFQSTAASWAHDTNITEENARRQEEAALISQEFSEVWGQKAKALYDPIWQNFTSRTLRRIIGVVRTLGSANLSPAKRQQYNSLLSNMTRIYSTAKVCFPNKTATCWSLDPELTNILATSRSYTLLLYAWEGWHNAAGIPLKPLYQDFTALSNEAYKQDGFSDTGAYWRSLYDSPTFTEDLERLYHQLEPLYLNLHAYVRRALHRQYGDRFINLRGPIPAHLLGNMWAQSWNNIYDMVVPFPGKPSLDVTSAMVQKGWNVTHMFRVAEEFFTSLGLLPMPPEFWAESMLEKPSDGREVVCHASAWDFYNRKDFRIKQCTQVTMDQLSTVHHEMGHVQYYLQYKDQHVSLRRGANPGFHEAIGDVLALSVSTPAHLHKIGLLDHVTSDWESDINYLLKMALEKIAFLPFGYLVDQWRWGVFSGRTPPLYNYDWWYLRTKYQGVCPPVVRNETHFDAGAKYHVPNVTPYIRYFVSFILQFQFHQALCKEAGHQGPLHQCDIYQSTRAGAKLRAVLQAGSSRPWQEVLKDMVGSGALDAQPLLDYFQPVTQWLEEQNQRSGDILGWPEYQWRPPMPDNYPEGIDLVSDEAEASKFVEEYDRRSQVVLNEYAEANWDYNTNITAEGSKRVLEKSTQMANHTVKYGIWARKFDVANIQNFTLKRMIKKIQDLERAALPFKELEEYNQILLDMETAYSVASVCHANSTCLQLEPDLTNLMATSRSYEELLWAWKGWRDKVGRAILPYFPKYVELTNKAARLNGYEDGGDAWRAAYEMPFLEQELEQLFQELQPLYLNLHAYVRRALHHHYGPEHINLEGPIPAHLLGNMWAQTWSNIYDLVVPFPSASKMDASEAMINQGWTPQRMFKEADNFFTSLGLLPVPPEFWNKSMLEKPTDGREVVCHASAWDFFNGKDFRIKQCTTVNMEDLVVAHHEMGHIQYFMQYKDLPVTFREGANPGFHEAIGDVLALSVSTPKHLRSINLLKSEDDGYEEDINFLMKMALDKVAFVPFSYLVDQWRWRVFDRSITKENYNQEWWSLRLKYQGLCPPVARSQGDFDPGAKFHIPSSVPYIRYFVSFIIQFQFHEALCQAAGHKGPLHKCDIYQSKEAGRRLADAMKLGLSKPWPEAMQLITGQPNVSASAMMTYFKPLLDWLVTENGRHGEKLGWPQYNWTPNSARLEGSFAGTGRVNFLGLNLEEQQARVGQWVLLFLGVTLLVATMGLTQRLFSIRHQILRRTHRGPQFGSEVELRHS
In short: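 Fluorogenic substrate cleavage by 1 nM ACE, read at 320/405 nm after EDTA stop at ~30 min. Reactions at 25 °C, pH 7.5, in HEPES/NaCl/Brij-35 buffer; compounds tested at 12 concentrations in 5% DMSO.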

[4] = Effect on appetite: food consumption in ICR mice; details: 100 mg/kg oral
Carboxypeptidase A = target: T3, Carboxypeptidase A (Bos taurus, UniProt P00730); assay: Carboxypeptidase A activity assay; assay type: biochemical; details: Ki class; compounds tested in 5% DMSO, 12 compound concentrations
T3 sequence (P00730 111-419): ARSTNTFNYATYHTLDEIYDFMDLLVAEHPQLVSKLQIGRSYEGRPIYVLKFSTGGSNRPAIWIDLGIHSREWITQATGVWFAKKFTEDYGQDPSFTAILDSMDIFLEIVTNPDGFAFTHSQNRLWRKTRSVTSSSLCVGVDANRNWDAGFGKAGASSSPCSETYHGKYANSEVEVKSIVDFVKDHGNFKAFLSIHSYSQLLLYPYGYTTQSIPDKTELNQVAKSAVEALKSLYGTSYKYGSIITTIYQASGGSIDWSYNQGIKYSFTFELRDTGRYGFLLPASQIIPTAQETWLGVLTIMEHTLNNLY
In short: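 Ki obtained by correcting apparent Ki for substrate, Ki=Kiapp/(1+[S]/Km), from 12-concentration series. Enzyme activity read by absorbance at 328 nm with 5% DMSO present, EDTA stop.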

ACE-2 (Rattus norvegicus, UniProt Q5EGZ1), sequence (Q5EGZ1 18-805): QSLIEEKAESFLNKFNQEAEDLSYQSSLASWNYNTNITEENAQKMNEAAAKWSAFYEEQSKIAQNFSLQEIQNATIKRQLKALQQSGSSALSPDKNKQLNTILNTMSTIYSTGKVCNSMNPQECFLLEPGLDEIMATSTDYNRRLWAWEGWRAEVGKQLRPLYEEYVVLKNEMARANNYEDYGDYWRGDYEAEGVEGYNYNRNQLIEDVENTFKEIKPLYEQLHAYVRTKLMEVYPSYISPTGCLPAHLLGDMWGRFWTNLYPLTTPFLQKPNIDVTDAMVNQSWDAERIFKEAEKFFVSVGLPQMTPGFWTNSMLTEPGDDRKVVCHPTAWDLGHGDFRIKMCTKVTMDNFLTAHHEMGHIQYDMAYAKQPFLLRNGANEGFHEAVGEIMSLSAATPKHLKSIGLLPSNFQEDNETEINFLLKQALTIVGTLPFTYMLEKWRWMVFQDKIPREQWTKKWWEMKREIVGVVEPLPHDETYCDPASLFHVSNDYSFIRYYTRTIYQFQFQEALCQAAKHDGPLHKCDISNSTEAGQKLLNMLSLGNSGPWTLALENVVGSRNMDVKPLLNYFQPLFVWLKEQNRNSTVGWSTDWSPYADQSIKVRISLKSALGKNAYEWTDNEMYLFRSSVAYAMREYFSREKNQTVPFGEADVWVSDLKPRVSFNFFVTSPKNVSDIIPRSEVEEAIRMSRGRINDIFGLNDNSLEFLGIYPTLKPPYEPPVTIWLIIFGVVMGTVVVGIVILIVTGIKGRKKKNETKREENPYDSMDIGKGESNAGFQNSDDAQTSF

In the case of `CC(C)CC(N[C@@H](Cc1cncn1Cc1cc(Cl)cc(Cl)c1)C(=O)O)C(=O)O` (single isomer, unassigned) [HE, 2-[1-Carboxy-2-[3-(3,5-dichloro-benzyl)-3H-imidazol-4-yl]-ethylamino)4-methyl-pentanoic acid], the Ki (ACE-2 [1]) is reported as < 0.1 µM, the “systemic exposure (plasma levels)” value [2] is reported as “relatively low systemic levels” and the Ki (ACE-2 [3]; Ki class, compounds tested in 5% DMSO, 12 compound concentrations, Ki=Kiapp/(1+[S]/Km), read-out: Human ACE-2 Activity) is reported as < 0.1 µM. For the same compound, the Ki (ACE-2 [3]; Table 3, very good ACE-2 inhibiting compounds, species not given, read-out: ACE-2 Activity, Ki) was < 0.05 µM, the Ki (ACE (Sigma, A2580)) was 10 to 50 µM and the “reduction of food intake compared to vehicle” value ([4]; 1 hr after administration) was “about 40%”. The “reduction of food intake compared to vehicle” value ([4]; 3 hr after administration) was “about 18%” and the Ki (Carboxypeptidase A) was 10 to 50 µM.
